According to patent US8663646B2, “P53 peptide vaccine” (priority 2007, dated 2014):
Like-named read-outs stand apart in the source and are kept apart here. Where no end group is shown, it is not given here.

Experiments:
proteasome = assay: Proteasome processing, summarised over proteasome types (Table 5); assay type: biochemical; conditions: 30 residue long precursor peptides
Method: In the context of the invention, “being inefficiently processed by a proteasome” preferably means that within the first hour of digestion by a proteasome less than 1% of total digested peptide is found. The processing by a proteasome is preferably assessed by incubating a purified proteasome, more preferably a human proteasome with a peptide comprising the potential CTL epitope (30 amino acid length approximately) in a proteasome digestion buffer during at least one hour at 37° C. The reaction is subsequently stopped by adding trifluoroacetic acid. Analysis of the digested peptides is performed with electrospray ionization mass spectrometry (see example 1). Even more preferably, the human proteasome is an immunoproteasome from B-LCL JY cells (Kessler J H et al. 2001).
20S immuno-proteasomes were purified from a mouse B-cell line (RMA) and a human B-LCL cell line (JY) and 20S household proteasomes were purified from human tumor cell line (HeLa) as described (Kessler J H et al 2001). To assess kinetics, digestions were performed with different incubation periods as indicated. Briefly, peptides containing the (potential) CTL epitopes (30 mers, 20 μg) were incubated with 1 μg of purified proteasome at 37° C. for 1 h, 4 h and 24 h in 300 μl proteasome digestion buffer, trifluoroacetic acid (30 μl) was added to stop the digestion and samples were stored at −20° C. before mass spectrometric analysis. Electrospray ionization mass spectrometry was performed on a hybrid quadrupole time-of-flight mass spectromter, a Q-TOF (Micromass), equipped with an on-line nanoelectrospray interface with an approximate flow rate of […] as described (Kessler J H et al 2001). The peaks in the mass spectrum were searched in the digested precursor peptide using the Biolynx/proteins software (Micromass) supplied with the mass spectrometer. The intensity of the peaks in the mass spectra was used to establish the relative amounts of peptides generated after proteasome digestion. The relative amounts of the peptides are given as a percentage of the total amount of peptide digested by the proteasome at the indicated incubation time. Major cleavage sites are defined as more than >1% of total digested peptide within the first hour.

HLA-A*0201 [1] = biological target: T1, HLA-A*0201 (Homo sapiens, UniProt P04439, D140Y/D185E/D98H/E176V/E277Q/G131W/G231S/I119V/I121R/I166T/I218V/L300P/L318F/N151K/N90K/P208A/P217A/Q86G/Q94H/R138H/R169H/T345S); assay: Peptide stabilization for HLA-A*0201; assay type: binding; conditions: for Peptide Binding Stability: HLA-A*0201, p53 peptides
HLA-A*0201 [2] = biological target: T1, HLA-A*0201; conditions: binding capacity previously determined, cited from earlier work
[3] = biological target: T2, 20S household proteasomes from human tumor cell line (HeLa) (Homo sapiens, UniProt P28072+P28074+Q99436); assay: In vitro proteasome mediated digestion of 30-mers, mass spectrometry, household proteasome HeLa; assay type: biochemical; conditions: 30 residue long precursor peptides
T2 construct: 20S household proteasomes were purified from human tumor cell line (HeLa); endogenous in cells; host or cells: HeLa cells; 20S proteasome purified from them
Procedure, shortened: (§1)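 30-mer peptides (20 μg) digested with 1 μg purified 20S proteasome (JY or RMA immunoproteasome, HeLa household proteasome) at 37° C for 1, 4 and 24 h, stopped with TFA. Nano-ESI Q-TOF MS; fragments quantified by peak intensity as percent of total digested peptide per time point; major cleavage site >1% within first hour.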

[4] = biological target: T3, 20S immuno-proteasomes from human B-LCL cell line (JY) (Homo sapiens, UniProt P28062+P28065+P40306); assay: In vitro proteasome mediated digestion of 30-mers, mass spectrometry, immunoproteasome JY; assay type: biochemical; conditions: 30 residue long precursor peptides
T3 construct: purified from a mouse B-cell line (RMA) and a human B-LCL cell line (JY); endogenous in cells; host or cells: B-LCL JY cells; 20S proteasome purified from them
Procedure, shortened: as §1

[5] = biological target: T4, 20S immuno-proteasomes from mouse B-cell line (RMA) (Mus musculus, UniProt O35955+P28063+P28076); assay: In vitro proteasome mediated digestion of 30-mers, mass spectrometry, immunoproteasome RMA; assay type: biochemical; conditions: 30 residue long precursor peptides
T4 construct: 20S immuno-proteasomes were purified from a mouse B-cell line (RMA); endogenous in cells; host or cells: RMA cells; 20S proteasome purified from them
Procedure, shortened: as §1

HLA-A*0101 [6] = biological target: T5, HLA-A*0101 (Homo sapiens, UniProt P04439, A114D/A174V/A182V/D101N/D185E/E176A/E190D/L180R/Q94H/R68K/S129P/T187R/V100A/V91M/W191G); assay: Competition based cellular binding assay, HLA-A*0101 (B-cell line CAA)
T5 construct: B-cell lines used are: CAA (A*0101), EKR (A*0301), BVR (A*1101), VIJF (A*2401); endogenous in cells; host or cells: B-cell line CAA

HLA-A*0101 [7] = biological target: T5, HLA-A*0101; assay: Stability of peptide-HLA complex, binding at 4° C. and 20° C., HLA-A*0101; conditions: for HLA binding Stability (Table 5): HLA type A1; for Peptide Binding Stability: HLA-A*0101, IC50 at 20° C. vs 4° C.
[8] = biological target: T3, 20S immuno-proteasomes from human B-LCL cell line (JY); conditions: PRAME peptides (Kessler J H et al 2001); cited from earlier work
[9] = HLA-A*0101, IC50 category, read-out: Peptide Binding Affinity

Compound | generation / processing by household and immunoproteasomes, in words (proteasome) | Peptide Binding Stability (HLA-A*0201 [1]) [h] | Proteasomal Cleavage of C-terminus, HH (HeLa) [3] | Proteasomal Cleavage of C-terminus, IP (JY) [4] | Proteasomal Cleavage of C-terminus, IP (RMA) [5] | Proteasomal Cleavage of C-terminus, IP (JY) [8] | also measured
CSCC[C@H](NC(=O)[C@@H](N)CCCNC(=N)N)C(=O)N1CCC[C@H]1C(=O)N[C@@H](CCC(=O)O)C(=O)N[C@@H](C)C(=O)N[C@@H](C)C(=O)N1CCC[C@H]1C(=O)N1CCC[C@H]1C(=O)N[C@H](C(=O)O)C(C)C [p53 65-73] | not/inefficiently processed | 6 | – | – | – | – | Peptide Binding Affinity (HLA-A*0201 [2]): high
CC(C)[C@H](NC(=O)[C@H](CCCNC(=N)N)NC(=O)[C@@H](NC(=O)CNC(=O)[C@@H]1CCCN1C(=O)[C@@H]1CCCN1C(=O)[C@@H]1CCCN1C(=O)[C@@H](NC(=O)[C@@H](N)CO)[C@@H](C)O)[C@@H](C)O)C(=O)O [p53 149-157] | efficiently generated | <2 | + (Major cleavage sites are defined as more than >1% of total digested peptide within the first hour) | + (Major cleavage sites are defined as more than >1% of total digested peptide within the first hour) | + (Major cleavage sites are defined as more than >1% of total digested peptide within the first hour) | – | capacity to form stable peptide-HLA-A*0201 complexes, in words (HLA-A*0201 [1]): weak; HLA binding Stability (Table 5) (HLA-A*0201 [1]; HLA type A2, class symbol): − (Peptides of >50% of the initial complexes was lost within 2 hours were considered unstable)
CC[C@H](C)[C@H](NC(=O)[C@H](CC(C)C)NC(=O)[C@H](Cc1c[nH]cn1)NC(=O)[C@H](CCC(N)=O)NC(=O)[C@@H]1CCCN1C(=O)[C@@H]1CCCN1C(=O)[C@H](C)NC(=O)[C@H](CC(C)C)NC(=O)CN)C(=O)N[C@@H](CCCNC(=N)N)C(=O)N[C@H](C(=O)O)C(C)C [p53 187-197] | efficiently generated | 6 | + (Major cleavage sites are defined as more than >1% of total digested peptide within the first hour) | + (Major cleavage sites are defined as more than >1% of total digested peptide within the first hour) | + (Major cleavage sites are defined as more than >1% of total digested peptide within the first hour) | – | capacity to form stable peptide-HLA-A*0201 complexes, in words (HLA-A*0201 [1]): forms stable peptide-HLA complexes
CC[C@H](C)[C@H](NC(=O)[C@@H](NC(=O)[C@@H](NC(=O)[C@@H](N)CS)[C@@H](C)O)[C@@H](C)O)C(=O)N[C@@H](Cc1c[nH]cn1)C(=O)N[C@@H](Cc1ccc(O)cc1)C(=O)N[C@@H](CC(N)=O)C(=O)N[C@@H](Cc1ccc(O)cc1)C(=O)O [p53 229-236] | – | – | – | – | – | – | IC50 (HLA-A*0101 [6]; HLA type A1, read-out: HLA binding Affinity (Table 5)): 15 to 50 µM; IC50 (HLA-A*0101 [6]; [9]): 5 to 15 µM; HLA binding Stability (Table 5) (HLA-A*0101 [7]): − (The rest was designated as unstable peptide binding.); Peptide Binding Stability (HLA-A*0101 [7]): − (The rest was designated as unstable peptide binding.)
CC(C)C[C@H](NC(=O)[C@@H](NC(=O)[C@H](Cc1ccccc1)NC(=O)[C@H](Cc1ccc(O)cc1)NC(=O)[C@H](CCC(=O)O)NC(=O)CNC(=O)[C@H](CC(=O)O)NC(=O)[C@H](CC(C)C)NC(=O)[C@@H]1CCCN1)[C@@H](C)O)C(=O)O [p53 322-330] | – | – | + (Major cleavage sites are defined as more than >1% of total digested peptide within the first hour) | + (Major cleavage sites are defined as more than >1% of total digested peptide within the first hour) | + (Major cleavage sites are defined as more than >1% of total digested peptide within the first hour) | – | IC50 (HLA-A*0201 [2]; read-out: Peptide Binding Affinity): 5 to 15 µM
ALYVDSLFFL [PRA 300-309] | – | – | – | – | – | + (Major cleavage sites are defined as more than >1% of total digested peptide within the first hour) | –
SLLQHLIGL [PRA 425-433] | – | – | – | – | – | + (Major cleavage sites are defined as more than >1% of total digested peptide within the first hour) | –
SLYSFPEPEA [PRA 142-151] | – | – | – | – | – | + (Major cleavage sites are defined as more than >1% of total digested peptide within the first hour) | –
VLDGLDVLL [PRA 100-108] | – | – | – | – | – | + (Major cleavage sites are defined as more than >1% of total digested peptide within the first hour) | –
YLDDRNTFRH [p53 205-214] | – | – | – | – | – | – | HLA binding Affinity (Table 5) (HLA-A*0101 [6]; HLA type A1): int; IC50 (HLA-A*0101 [6]; [9]): 5 to 15 µM; HLA binding Stability (Table 5) (HLA-A*0101 [7]): + (Stable peptides displayed IC50 at 20 °C that deviated <2 times of the IC50 at 4° C.); Peptide Binding Stability (HLA-A*0101 [7]): + (Stable peptides displayed IC50 at 20 °C that deviated <2 times of the IC50 at 4° C.)
